The values that follow come from US20130252247A1, “KIT FOR SCREENING FOR SKIN-ACTIVATING SUBSTANCES AND COMPRISING THE KLOTHO GENE, AND METHOD FOR SCREENING FOR SKIN-ACTIVATING SUBSTANCES USING THE SAME” (Amorepacific Corporation, priority 2011, published 2013).

This assay concerns Klotho. Description: Klotho expression in keratinocytes treated with retinoic acid and retinol, quantitative real-time PCR. The format is cell-based, human. The method, then:
In order to examine whether Klotho protein is expressed in skin cells, primers of SEQ ID NOS: 1 and 2, which can amplify Klotho gene (NCBI accession No. NM-004795), were constructed. Then, RT-PCR was performed using the primer set and a probe of SEQ ID NO: 3 (TaqMan™ fluorogenic probe) in order to detect Klotho mRNA in the cDNA of keratinocytes (NHK), fibroblasts (NHF), NHM-promoblack (Normal Human Epidermal Melanocytes (NHEM) juvenile foreskin, Promocell: melanocytes derived from dark-skinned persons), NHM-DP (NHM-dark pigment, Invitrogen: melanocytes derived from dark-skinned persons) and NHM-MP (NHM-moderate pigment, Invitrogen: melanocytes derived from Asian). The PCR reaction was performed for 35 cycles, each consisting of denaturation at 94° C. for 30 sec, annealing at 55° C. for 30 sec, and extension at 72° C. for 60 sec. As a positive control, the cDNA of human embryonic kidney cells (HEK293) known to express Klotho gene was used.
In order to examine the effects of retinoic acid and retinol (known as anti-aging substances) on the expression of Klotho in keratinocytes, quantitative real time PCR was performed under the same conditions as described in Test Example 1, and the expression levels of Klotho protein were examined at 2 days and 8 days after treatment of the cells with each of 0.1 μM and 1 μM of retinoic acid and 1 μM and 10 μM of retinol.
On the technique in general: Quantitative PCR measures a nucleic acid by following its amplification.

`CC1=C(/C=C/C(C)=C/C=C/C(C)=C/CO)C(C)(C)CCC1` [retinol]: the “expression level of Klotho protein” value (keratinocytes, 8 days after treatment, 0.1 μM and 1 μM retinoic acid, 1 μM and 10 μM retinol, FIG. 3) is “significantly increased”. The “expression of Klotho protein” value (summary statement, found using the kit) is “increased”.
